# What was measured:
# Assay in all cases: relative viability (nuclei count vs DMSO), 5 days (fraction); higher = more cells survive
# A-427 = system: A-427
# Summary of the method: (§1)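 Lung cancer cell lines were seeded in 1536-well plates and dosed by pin tool the next day, with either a single drug or a fixed anchor-drug dose combined with five library-drug doses (not always all listed) spaced in √10 steps. Five days later, one step fixed the cells and stained their nuclei (final 0.05% Triton X-100, 1% formaldehyde, 1 ug/ml Hoechst), and nuclei were counted on 4× images. Relative viability is the nuclei count in treated wells divided by the count in vehicle wells, and each value is the median of duplicate plates.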
# A549 = system: A549
# Summary of the method: as §1
# LK-2 = system: LK-2
# Summary of the method: as §1
# NCI-H1648 = system: NCI-H1648
# Summary of the method: as §1
# NCI-H1650 = system: NCI-H1650
# Summary of the method: as §1
# NCI-H1734 = system: NCI-H1734
# Summary of the method: as §1
# NCI-H2009 = system: NCI-H2009
# Summary of the method: as §1
# UMC-11 = system: UMC-11
# Summary of the method: as §1
# CAL-12T = system: CAL-12T
# Summary of the method: as §1
# IA-LM = system: IA-LM
# Summary of the method: as §1
smiles,measurement,setting,value
O=c1cc(-c2cccc3c2Sc2ccccc2S3)oc(N2CCOCC2)c1 + Nc1ncn([C@H]2C[C@H](O)[C@@H](CO)O2)c(=O)n1 [Decitabine] (partner 2 µM),relative viability,A-427; first compound 0.08 µM,0.448
same,relative viability,A-427; first compound 0.253 µM,0.6
same,relative viability,A-427; first compound 0.8 µM,0.547
same,relative viability,A-427; first compound 2.53 µM,0.573
same,relative viability,A-427; first compound 8 µM,0.548
same,relative viability,A549; first compound 0.08 µM,0.259
same,relative viability,A549; first compound 0.253 µM,0.325
same,relative viability,A549; first compound 0.8 µM,0.263
same,relative viability,A549; first compound 2.53 µM,0.106
same,relative viability,A549; first compound 8 µM,0.334
same,relative viability,LK-2; first compound 0.08 µM,0.245
same,relative viability,LK-2; first compound 0.253 µM,0.341
same,relative viability,LK-2; first compound 0.8 µM,0.244
same,relative viability,LK-2; first compound 2.53 µM,0.255
same,relative viability,LK-2; first compound 8 µM,0.335
same,relative viability,NCI-H1648; first compound 0.253 µM,0.501
same,relative viability,NCI-H1648; first compound 0.8 µM,0.553
same,relative viability,NCI-H1648; first compound 8 µM,0.54
same,relative viability,NCI-H1650; first compound 0.08 µM,0.415
same,relative viability,NCI-H1650; first compound 0.253 µM,0.511
same,relative viability,NCI-H1650; first compound 0.8 µM,0.416
same,relative viability,NCI-H1650; first compound 2.53 µM,0.365
same,relative viability,NCI-H1650; first compound 8 µM,0.374
same,relative viability,NCI-H1734; first compound 0.08 µM,0.452
same,relative viability,NCI-H1734; first compound 0.253 µM,0.574
same,relative viability,NCI-H1734; first compound 0.8 µM,0.528
same,relative viability,NCI-H1734; first compound 8 µM,0.512
same,relative viability,NCI-H2009; first compound 0.08 µM,0.375
same,relative viability,NCI-H2009; first compound 0.253 µM,0.358
same,relative viability,NCI-H2009; first compound 0.8 µM,0.38
same,relative viability,NCI-H2009; first compound 2.53 µM,0.348
same,relative viability,NCI-H2009; first compound 8 µM,0.343
same,relative viability,UMC-11; first compound 0.08 µM,0.599
same,relative viability,UMC-11; first compound 0.253 µM,0.567
same,relative viability,UMC-11; first compound 0.8 µM,0.585
same,relative viability,UMC-11; first compound 2.53 µM,0.613
same,relative viability,UMC-11; first compound 8 µM,0.712
O=c1cc(N2CCOCC2)oc2c(-c3cccc4c3sc3ccccc34)cccc12 + O=C(CCCCCCC(=O)Nc1ccccc1)NO [Vorinostat] (partner 1 µM),relative viability,A-427; first compound 0.01 µM,0.844
same,relative viability,A-427; first compound 0.03162 µM,0.95
same,relative viability,A-427; first compound 0.1 µM,0.843
same,relative viability,A-427; first compound 0.3162 µM,0.82
same,relative viability,A-427; first compound 1 µM,0.86
same,relative viability,CAL-12T; first compound 0.01 µM,0.967
same,relative viability,CAL-12T; first compound 0.03162 µM,0.828
same,relative viability,CAL-12T; first compound 0.1 µM,0.727
same,relative viability,CAL-12T; first compound 0.3162 µM,0.748
same,relative viability,CAL-12T; first compound 1 µM,0.618
same,relative viability,IA-LM; first compound 0.01 µM,0.965
same,relative viability,IA-LM; first compound 0.03162 µM,0.986
same,relative viability,IA-LM; first compound 0.1 µM,0.907
same,relative viability,IA-LM; first compound 0.3162 µM,0.901
same,relative viability,IA-LM; first compound 1 µM,0.909
same,relative viability,LK-2; first compound 0.01 µM,0.343
same,relative viability,LK-2; first compound 0.03162 µM,0.267
same,relative viability,LK-2; first compound 0.1 µM,0.345
same,relative viability,LK-2; first compound 0.3162 µM,0.233
same,relative viability,LK-2; first compound 1 µM,0.27
same,relative viability,NCI-H1648; first compound 0.03162 µM,0.577
same,relative viability,NCI-H1648; first compound 0.1 µM,0.438
same,relative viability,NCI-H1648; first compound 0.3162 µM,0.419
same,relative viability,NCI-H1648; first compound 1 µM,0.689
same,relative viability,NCI-H1650; first compound 0.01 µM,0.485
same,relative viability,NCI-H1650; first compound 0.03162 µM,0.692
same,relative viability,NCI-H1650; first compound 0.1 µM,0.547
same,relative viability,NCI-H1650; first compound 0.3162 µM,0.631
same,relative viability,NCI-H1650; first compound 1 µM,0.49
same,relative viability,NCI-H1734; first compound 0.01 µM,0.839
same,relative viability,NCI-H1734; first compound 0.03162 µM,0.819
same,relative viability,NCI-H1734; first compound 0.1 µM,0.631
same,relative viability,NCI-H1734; first compound 0.3162 µM,0.773
same,relative viability,NCI-H1734; first compound 1 µM,0.819
same,relative viability,NCI-H2009; first compound 0.01 µM,0.715
same,relative viability,NCI-H2009; first compound 0.03162 µM,0.727
same,relative viability,NCI-H2009; first compound 0.1 µM,0.696
same,relative viability,NCI-H2009; first compound 0.3162 µM,0.761
same,relative viability,NCI-H2009; first compound 1 µM,0.7
same,relative viability,UMC-11; first compound 0.01 µM,0.386
same,relative viability,UMC-11; first compound 0.03162 µM,0.368
same,relative viability,UMC-11; first compound 0.1 µM,0.365
same,relative viability,UMC-11; first compound 0.3162 µM,0.429
same,relative viability,UMC-11; first compound 1 µM,0.311
COc1nc(C)cnc1NS(=O)(=O)c1cccnc1-c1ccc(-c2nnco2)cc1 [Zibotentan] + O=C(CCCCCCC(=O)Nc1ccccc1)NO [Vorinostat] (partner 1 µM),relative viability,A-427; first compound 0.08 µM,0.921
same,relative viability,A-427; first compound 0.253 µM,0.848
same,relative viability,A-427; first compound 0.8 µM,0.905
same,relative viability,A-427; first compound 2.53 µM,0.928
same,relative viability,CAL-12T; first compound 0.08 µM,0.887
same,relative viability,CAL-12T; first compound 0.253 µM,0.543
same,relative viability,CAL-12T; first compound 0.8 µM,0.742
same,relative viability,CAL-12T; first compound 2.53 µM,0.714
same,relative viability,IA-LM; first compound 0.08 µM,0.881
same,relative viability,IA-LM; first compound 0.253 µM,0.981
same,relative viability,IA-LM; first compound 0.8 µM,0.9
same,relative viability,IA-LM; first compound 2.53 µM,0.939
same,relative viability,LK-2; first compound 0.08 µM,0.304
same,relative viability,LK-2; first compound 0.253 µM,0.305
same,relative viability,LK-2; first compound 0.8 µM,0.338
same,relative viability,LK-2; first compound 2.53 µM,0.209
same,relative viability,NCI-H1648; first compound 0.08 µM,0.574
same,relative viability,NCI-H1648; first compound 0.253 µM,0.331
same,relative viability,NCI-H1648; first compound 0.8 µM,0.54
same,relative viability,NCI-H1648; first compound 2.53 µM,0.483
same,relative viability,NCI-H1650; first compound 0.08 µM,0.528
same,relative viability,NCI-H1650; first compound 0.8 µM,0.61
same,relative viability,NCI-H1650; first compound 2.53 µM,0.646
same,relative viability,NCI-H1734; first compound 0.08 µM,0.842
same,relative viability,NCI-H1734; first compound 0.253 µM,0.705
same,relative viability,NCI-H1734; first compound 0.8 µM,0.864
same,relative viability,NCI-H1734; first compound 2.53 µM,0.912
same,relative viability,NCI-H2009; first compound 0.08 µM,0.705
same,relative viability,NCI-H2009; first compound 0.253 µM,0.705
same,relative viability,NCI-H2009; first compound 0.8 µM,0.72
same,relative viability,NCI-H2009; first compound 2.53 µM,0.893
same,relative viability,UMC-11; first compound 0.08 µM,0.408
same,relative viability,UMC-11; first compound 0.253 µM,0.418
same,relative viability,UMC-11; first compound 0.8 µM,0.384
same,relative viability,UMC-11; first compound 2.53 µM,0.293

# — the supplement of paper PMC10307832
